The results in this text go back to publication PMC5605198, “MELK is not necessary for the proliferation of basal-like breast cancer cells” (eLife, 2017).

In assay [1] the test system is FKBP12^F36V-MELK(sg3R). Kind of assay: dTAG-induced degradation, immunoblot. The following applies: MELK−/− MDA-MB-468-FKBP12^F36V-MELK(sg3R) cells. It is filed as cell-based. How it is done: Four dTAG molecules (7, 13, 36 and 47) that vary in linker length and chemical structure were tested for their efficiency at depleting FKBP12^F36V-MELK(sg3R) (Figure 4A, Figure 4—figure supplement 3).
Figure 4. […] (A) Chemical structure of heterobifunctional dTAG molecule dTAG-47. See also Figure 4—figure supplement 3 for the chemical structures of dTAG-7, dTAG-13 and dTAG-36. (B) Immunoblots for MELK and GAPDH after treatment of dTAG-7, 13, 36, and 47 at indicated concentrations in MELK−/− MDA-MB-468-FKBP12^F36V-MELK(sg3R) cells for 4 hours. See Figure 4—figure supplement 1 for details of the generation of MELK−/− MDA-MB-468-FKBP12^F36V-MELK(sg3R) clones. (C) Same as in 4B, but with treatment at 500 nM and extended treatment times for 14, 24, 48, and 72 hours. (D) Changes in abundance of 7270 proteins (peptide count ≥2) comparing MELK−/− MDA-MB-468-FKBP12^F36V-MELK cells treated with dTAG-7 (250 nM) or DMSO for 1 hour, versus p-value (dTAG-7: triplicate, DMSO: duplicate, limma moderated t-test). See also Figure 4—source datas 1 and 2 for the original and the processed data. (E) Crystal violet staining image showing parental MDA-MB-468 cells and MELK−/− MDA-MB-468-FKBP12^F36V-MELK(sg3R) cells after treatment with DMSO or 500 nM of dTAG-47 for 9 days. Immunoblots showing MELK and GAPDH from a duplicate plate on Day 9 confirmed sustained depletion of FKBP12^F36V-MELK(sg3R). These are representative data from one of two independent experiments. Figure 4—source data 1. Raw integrated ion intensities from quantitative multiplexed proteomics. Figure 4—source data 2. Processed Data and Statistical Analysis by limma (topTable). Figure 4—figure supplement 1. Single clones selected from MDA-MB-468-FKBP12^F36V-MELK(sg3R) cells subject to CRISPR/Cas9-mediated knockout of endogenous MELK. Immunoblots for MELK and GAPDH in single cell clones selected from MDA-MB-468-FKBP12^F36V-MELK(sg3R) transfected with Cas9/sgMELK-3 to knockout endogenous MELK. Clone 1D4 is clone 1 and clone 1A3 is clone 2 in Figure 4. Clone 1D4 was confirmed with heterozygous −1 and +1 indels; clone 1A3 was confirmed with homozygous −1 deletions. [drawing 5] Figure 4—figure supplement 2. […] (A) Immunoblots for MELK, cyclin B1 and GAPDH in asynchronous versus M-phase arrested MDA-MB-468 cells and MDA-MB-468-FKBP12^F36V-MELK(sg3R) cells (clone 1). […] Chemical structures of dTAG molecules. FKBP12^F36V-binding ligands conjugated by variable linkers to thalidomide or pomalidomide, including (A) dTAG-7, (B) dTAG-13 and (C) dTAG-36 are capable of inducing degradation of FKBP12^F36V-tagged proteins of interest. [drawing 7]

For assay [2], the target named is T1, MELK (Homo sapiens, UniProt P62942+Q14680).
T1 construct: expressed in transfected cells; host or cells: MDA-MB-468 (lentiviral transduction, endogenous MELK knocked out)
As to the kind of experiment: Quantitative multiplexed proteomics (TMT LC-MS3). The following applies: 250 nM, 60 min, MELK−/− MDA-MB-468-FKBP12^F36V-MELK cells. It is filed as cell-based. How it is done: (§1) MELK−/− MDA-MB-468-FKBP12^F36V-MELK cells were treated in duplicates with DMSO for 30 minutes or 60 minutes, or in triplicates with dTAG-7 (250 nM) for 30 minutes or 60 minutes. Cells were washed with ice-cold PBS once, collected by scraping and centrifugation, and lysed in 1 mL of lysis buffer (8 M urea, 1% SDS, 50 mM Tris pH8.5 supplemented with protease and phosphatase inhibitors). A micro-BCA assay (Pierce) was used to determine the protein concentration of each sample. A total of 1200 µg of proteins from each sample was depleted of abundant proteins using two Pierce Top 12 protein depletion spin columns. Eluted proteins were combined, and protein concentration was determined by micro-BCA. […] Peptide quantification was performed using the micro-BCA assay (Pierce). […]
(§2) 12 of the 24 peptide fractions from the basic reverse phase fractionation (every other fraction) were analyzed with an LC-MS3 data collection strategy ([McAlister et al., 2014]) on an Orbitrap Fusion mass spectrometer (Thermo Fisher Scientific) equipped with a Proxeon Easy nLC 1000 for online sample handling and peptide separations. […]
(§3) A suite of in-house software tools were used to for. RAW file processing and controlling peptide and protein level false discovery rates, assembling proteins from peptides, and protein quantification from peptides as previously described. […]

Assay [3] deals with EEA1. Kind of assay: Quantitative multiplexed proteomics (TMT LC-MS3). Format: cell-based, human. The following applies: 250 nM, 60 min, MELK−/− MDA-MB-468-FKBP12^F36V-MELK cells. How it is done:
as §1, with “micro-BCA. Proteins were precipitated on ice for 1 hour with 13% trichloroacetic acid (TCA), washed twice with acetone, and pellets were allowed to air dry. Proteins were resuspended in 6 M urea, 50 mM Tris pH 8.5, reduced with 5 mM dithiothreitol (DTT) at room temperature for 1 hour, and alkylated with 15 mM iodoacetamide in the dark at room temperature for 1 hour. Alkylation was quenched with DTT. Urea concentration was reduced to 4 M and proteins were digested with LysC (1:50; enzyme:protein) for 6 hours at 25°C. The LysC digestion was diluted to 1 M urea, 50 mM Tris pH 8.5 and then digested with trypsin (1:100; enzyme:protein) overnight at 37°C.” for “micro-BCA.”
as §2, §3

The subject of assay [4] is HNRNPR. As to the kind of experiment: Quantitative multiplexed proteomics (TMT LC-MS3). Conditions: 250 nM, 60 min, MELK−/− MDA-MB-468-FKBP12^F36V-MELK cells. Format: cell-based, human. The method, then:
as §1, with “micro-BCA. Proteins were precipitated on ice for 1 hour with 13% trichloroacetic acid (TCA), washed twice with acetone, and pellets were allowed to air dry. Proteins were resuspended in 6 M urea, 50 mM Tris pH 8.5, reduced with 5 mM dithiothreitol (DTT) at room temperature for 1 hour, and alkylated with 15 mM iodoacetamide in the dark at room temperature for 1 hour. Alkylation was quenched with DTT. Urea concentration was reduced to 4 M and proteins were digested with LysC (1:50; enzyme:protein) for 6 hours at 25°C. The LysC digestion was diluted to 1 M urea, 50 mM Tris pH 8.5 and then digested with trypsin (1:100; enzyme:protein) overnight at 37°C.” for “micro-BCA.”
as §2, §3

Assay [5] relates to MKL1. As to the kind of experiment: Quantitative multiplexed proteomics (TMT LC-MS3). Format: cell-based, human. The following applies: 250 nM, 60 min, MELK−/− MDA-MB-468-FKBP12^F36V-MELK cells. The method, then: as §1, with “micro-BCA. Proteins were precipitated on ice for 1 hour with 13% trichloroacetic acid (TCA), washed twice with acetone, and pellets were allowed to air dry. Proteins were resuspended in 6 M urea, 50 mM Tris pH 8.5, reduced with 5 mM dithiothreitol (DTT) at room temperature for 1 hour, and alkylated with 15 mM iodoacetamide in the dark at room temperature for 1 hour. Alkylation was quenched with DTT. Urea concentration was reduced to 4 M and proteins were digested with LysC (1:50; enzyme:protein) for 6 hours at 25°C. The LysC digestion was diluted to 1 M urea, 50 mM Tris pH 8.5 and then digested with trypsin (1:100; enzyme:protein) overnight at 37°C.” for “micro-BCA.”
as §2, §3

T1 sequence (P62942+Q14680 fused P62942:F37V): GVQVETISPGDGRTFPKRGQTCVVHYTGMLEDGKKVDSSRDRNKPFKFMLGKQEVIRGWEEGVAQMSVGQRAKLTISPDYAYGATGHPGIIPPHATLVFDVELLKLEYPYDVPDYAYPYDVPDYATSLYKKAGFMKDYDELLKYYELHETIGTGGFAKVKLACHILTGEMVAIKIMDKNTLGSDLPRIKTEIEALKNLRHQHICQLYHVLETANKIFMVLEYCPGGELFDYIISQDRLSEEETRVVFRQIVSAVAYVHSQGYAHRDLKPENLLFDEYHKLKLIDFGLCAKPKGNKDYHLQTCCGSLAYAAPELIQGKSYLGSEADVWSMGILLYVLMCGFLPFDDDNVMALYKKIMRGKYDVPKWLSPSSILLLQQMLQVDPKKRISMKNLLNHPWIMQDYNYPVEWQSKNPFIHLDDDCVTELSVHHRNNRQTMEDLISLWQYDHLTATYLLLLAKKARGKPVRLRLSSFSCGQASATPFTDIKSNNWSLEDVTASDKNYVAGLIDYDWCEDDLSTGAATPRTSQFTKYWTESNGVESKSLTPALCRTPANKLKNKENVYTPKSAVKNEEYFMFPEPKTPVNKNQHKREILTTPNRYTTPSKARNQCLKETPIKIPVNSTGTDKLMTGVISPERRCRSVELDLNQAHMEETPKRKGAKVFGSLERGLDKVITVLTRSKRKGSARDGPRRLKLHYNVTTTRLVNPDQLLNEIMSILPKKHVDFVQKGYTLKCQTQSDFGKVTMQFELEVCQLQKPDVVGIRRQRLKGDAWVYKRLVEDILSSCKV
T1 sequence (Q96SW2 whole entry partner): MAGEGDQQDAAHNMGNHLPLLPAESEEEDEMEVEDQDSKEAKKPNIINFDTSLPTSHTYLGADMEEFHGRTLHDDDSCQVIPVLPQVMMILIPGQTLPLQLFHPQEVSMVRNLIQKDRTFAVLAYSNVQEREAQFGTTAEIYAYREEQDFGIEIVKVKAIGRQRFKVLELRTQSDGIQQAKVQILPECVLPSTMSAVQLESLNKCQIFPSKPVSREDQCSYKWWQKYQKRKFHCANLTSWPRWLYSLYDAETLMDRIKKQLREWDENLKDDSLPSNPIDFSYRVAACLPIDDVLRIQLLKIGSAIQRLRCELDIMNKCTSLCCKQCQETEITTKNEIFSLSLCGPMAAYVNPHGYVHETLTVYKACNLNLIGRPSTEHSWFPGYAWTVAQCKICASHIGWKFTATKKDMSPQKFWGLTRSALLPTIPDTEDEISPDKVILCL
T1 sequence (Q16531 2-1140 partner limits assumed): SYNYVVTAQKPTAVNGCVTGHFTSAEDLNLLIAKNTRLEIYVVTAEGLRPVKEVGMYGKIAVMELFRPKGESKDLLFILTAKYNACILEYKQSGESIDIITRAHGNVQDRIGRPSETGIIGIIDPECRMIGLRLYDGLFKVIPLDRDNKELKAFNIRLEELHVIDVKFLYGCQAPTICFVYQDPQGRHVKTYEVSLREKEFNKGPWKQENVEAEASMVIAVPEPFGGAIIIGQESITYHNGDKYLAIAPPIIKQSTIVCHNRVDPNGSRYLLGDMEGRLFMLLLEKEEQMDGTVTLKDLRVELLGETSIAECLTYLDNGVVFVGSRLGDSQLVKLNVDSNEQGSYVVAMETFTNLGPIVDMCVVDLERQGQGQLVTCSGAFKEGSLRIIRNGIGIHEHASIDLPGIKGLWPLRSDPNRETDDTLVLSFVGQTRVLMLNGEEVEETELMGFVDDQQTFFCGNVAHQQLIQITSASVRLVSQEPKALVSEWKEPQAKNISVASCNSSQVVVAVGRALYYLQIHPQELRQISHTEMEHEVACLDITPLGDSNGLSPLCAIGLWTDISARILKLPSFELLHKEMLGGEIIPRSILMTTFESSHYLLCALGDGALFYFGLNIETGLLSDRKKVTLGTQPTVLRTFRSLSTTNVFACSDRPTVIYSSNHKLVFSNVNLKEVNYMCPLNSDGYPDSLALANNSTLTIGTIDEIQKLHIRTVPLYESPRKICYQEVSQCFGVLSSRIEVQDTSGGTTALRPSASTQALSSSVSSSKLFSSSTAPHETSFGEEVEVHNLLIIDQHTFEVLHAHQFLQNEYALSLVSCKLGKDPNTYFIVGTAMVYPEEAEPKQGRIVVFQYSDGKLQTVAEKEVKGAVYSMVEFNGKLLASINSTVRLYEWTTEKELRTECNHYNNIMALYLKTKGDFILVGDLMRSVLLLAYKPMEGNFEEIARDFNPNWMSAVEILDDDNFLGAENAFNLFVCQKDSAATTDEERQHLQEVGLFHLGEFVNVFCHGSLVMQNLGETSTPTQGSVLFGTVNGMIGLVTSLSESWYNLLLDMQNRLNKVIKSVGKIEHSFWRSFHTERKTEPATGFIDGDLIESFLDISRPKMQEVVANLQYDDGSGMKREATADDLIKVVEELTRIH

As for `CCC(C(=O)N1CCCCC1C(=O)OC(CCc1ccc(OC)c(OC)c1)c1ccccc1OCC(=O)NCCCOCCOCCOCCCNC(=O)COc1cccc2c1C(=O)N(C1CCC(=O)NC1=O)C2=O)c1cc(OC)c(OC)c(OC)c1` (centres unmarked) [dTAG-7], the “time to efficient depletion of FKBP12^F36V-MELK(sg3R)” value in assay [1] was ≤ 4 h. The “logFC (log2 fold change of dTAG-7 to DMSO) MELK” value in assay [2] is -0.8583. For the same compound, the “logFC (log2 fold change of dTAG-7 to DMSO) EEA1” value in assay [3] is -0.08592. Further, the “logFC (log2 fold change of dTAG-7 to DMSO) HNRNPR” value in assay [4] came to 0.28. The “logFC (log2 fold change of dTAG-7 to DMSO) MKL1” value in assay [5] is given as -0.2984.
